Measurements published in patent publication US7132563B1, “Convenient method for the preparation of no-carrier-added O-(2-[18F]fluoroethyl)-L-tyrosine)” (Institute of Nuclear Energy Research, priority 2005, dated 2006).
“And” between values parts separate entries of the source, which are not always exact repeats. Identical values can stand only once.

How the values were obtained:
F98 glioma cells = assay: L-[^18F]FET uptake by F98 glioma tumor cells; type: cell-based, rat; details: for uptake ratio (radioactivity uptake of cells / total added radioactivity): 10 μCi/well
Description: (1) In five six-well plates, put 1×10^6 F98 glioma cells and 2 ml DMEM (1 g glucose/l) into three wells.
(2) Total of five time points (2, 5, 10, 30 minute and 1 hour) in this experiment and each time point use one six-well plate.
(3) Predetermined activity of L-[^18F]FET or [^18F]FDG (10 μCi/well) is added into each well during the experiment. Radioactivity uptake of cells divided by total added radioactivity can obtain its calculated uptake ratio.
F98 glioma cells intake L-[^18F]FET rapidly and maximal accumulation will reach after 10 minutes (uptake ratio 0.47%). As cell cannot metabolize L-[^18F]FET, therefore, the rate of L-[^18F]FET transportation by the cells become balance after ten minutes when add L-[^18F]FET; the accumulation of L-[^18F]FET in glioma cells only slightly decrease after 1 hour (uptake ratio 0.41%).

[1] = system: F98 glioma implanted Fischer 344 rat; assay: Biological distribution of L-[^18F]FET in F98 glioma-bearing Fischer 344 rat; type: in vivo
Description: (1) Total of twenty Fischer 344 male rats will be assessed in vivo for L-[^18F]FET biological distribution. Use the intersection of bregma and sagittal midlines as original point; so as to implant F98 glioma cells (1×10^5 cells/10 μl) at the place of 3 mm left 5 mm upward and 5 mm depth. Biological distribution test will be carry out after 11˜12 days of brain tumor implantation.
(2) Different volume of radioactive level is injected, injected volume of L-[^18F]FET for each Fischer 344 rat is 200˜300 μl, that is approximately 200˜250 μCi of activity.
(3) Inject L-[^18F]FET via tail vein, and rats are sacrificed at 15, 30, 60, 90 and 120 minutes.
(4) Dissection of rat organ is right after sacrifice. Scissors off chest and abdomen fur alone the line from genital pore upward to jowl. Next, scissors off chest above xiphisternal transversely. Open ribs aside, take blood sample from venous sinus with 0.5 ml syringe. Withdraw the needle after depletion of blood and collect the extracted heart. Collect the lung lobes with forcep.
(5) Scissors off abdominal muscle from genital pore upward to the position below xiphisternal longitudinally. Then, scissors off the opening of upper and lower edges transversely, everts muscle layers to both sides and expose celiac organs. Search for bladder in lower abdomen and sequentially removes stomach, liver, spleen, small intestine, large intestine, kidney, and muscle.
(6) After turn over the rat, scissors off fur of shoulder and removes exposed subcutaneous tumor. Cut scalp upward at lower margin of cranium above foramen magnum and expose cranial bone. Then, cut cervical portion transversely at foramen magnum and expose spinal cord. Inserts foramen magnum with scissors' tip while attach the inner surface of cranium; such that scissors' tip can reach the frontal edge of cranial cavity in order to scissor off the center of cranium. Use scissors to open cranium aside and expose brain tissue. Alone skull base insert scissors deeply to the front edge of cranial cavity in order to remove left-brain, right-brain and brain tumor.
(7) Weight all organ samples; measure radioactivity with γ-counter and convert to % ID/g (% injection dose/g organ) of each organ for estimate the biological distribution of L-[^18F]FET. […] According to reports, L-[^18F]FET can pass through blood brain barrier (BBB) and enter brain by way of L amino acid transporter system. […] Tumor- to-normal brain ratio of L-[^18F]FET at 15, 30, 60, 90 and 120 minutes are 1.54, 1.74, 3.16, 3.14 and 2.34 respectively. […] Some papers reported that patient with tumor observes no significant accumulation of radioactivity in pancreas when use positron emission tomography (PET), the discrepant results were assumed that human and rat have different metabolic pathway. Furthermore, biological distribution study of L-[^18F]FET indicated radioactivity accumulation in tumor cells (expressed by % ID/g) are much higher than other normal organs (left-brain, small intestine, kidney, liver, blood and muscle) except pancreas, this means L-[^18F]FET can be a potential PET agent for substantially different site of tumor.

[2] = system: F98 glioma implanted Fischer 344 rat; assay: PET and microPET imaging of tumor-bearing rat with L-[^18F]FET; type: in vivo; details: 400 μCi via tail vein
Description: (1) Positron emission tomography (PET) studies of tumor-bearing rat (Fischer 344) with L-[^18F]FET will be carry out after 11˜12 days of brain tumor (F98 glioma) implantation.
(2) Producing processes of L-[^18F]FET as described above, and estimates its administrating amount of agent according to the level of radioactivity.
(3) At the very beginning, inject 400 μCi of L-[^18F]FET into tail vein. Temporarily anesthetize rats with ether at time of 0.5, 1, 1.5 and 2 hours. Fix rat on transparent acrylic board and place on PET table after securing stretched limbs on the board. Continuously anesthetize rats with isoflurane gas. Align implant portion of head with PET machine as to assure the fixation of original imaging position.
(4) Adjust background value by blank scan before PET imaging.
(5) Use […] radioactive source proceed transmission scan for adjust tissue attenuation.
(6) Commence PET and microPET imaging. Perform image processing after reconstruction of acquired image data; the coronal and cross section scans show in FIGS. 3 and 9. […] In contrast to tumor site, normal tissue have lower radioactivity accumulation of L-[^18F]FET because of lower amino acid requirement.

[3] = 15 min after tail vein injection, tumor-bearing rat
[4] = 30 min after tail vein injection, tumor-bearing rat
[5] = 60 min after tail vein injection, tumor-bearing rat
[6] = 90 min after tail vein injection, tumor-bearing rat
[7] = 120 min after tail vein injection, tumor-bearing rat

With N[C@@H](Cc1ccc(OCC[18F])cc1)C(=O)O [L-[^18F]FET, O-(2-[^18F]fluoroethyl)-L-Tyrosine] the “time to maximal accumulation in cells” value (F98 glioma cells) was 10 min, the “uptake ratio (radioactivity uptake of cells / total added radioactivity)” value (F98 glioma cells; after 10 minutes (maximal accumulation)) was 0.47% and the “uptake ratio (radioactivity uptake of cells / total added radioactivity)” value (F98 glioma cells; after 1 hour) was 0.41%. For the same molecule, the “accumulated radioactivity in Blood” value [1, 3] was 0.41 ± 0.03 % ID/g, the “accumulated radioactivity in Heart” value [1, 3] was 0.30 ± 0.06 % ID/g and the “accumulated radioactivity in Kidney” value [1, 3] was 0.33 ± 0.01 % ID/g. For the same molecule, the “accumulated radioactivity in Large intestine” value [1, 3] was 0.21 ± 0.01 % ID/g, the “accumulated radioactivity in Left brain” value [1, 3] was 0.08 ± 0.01 % ID/g and the “accumulated radioactivity in Liver” value [1, 3] was 0.27 ± 0.06 % ID/g. The “accumulated radioactivity in Lung” value [1, 3] was 0.32 ± 0.05 % ID/g, the “accumulated radioactivity in Muscle” value [1, 3] was 0.19 ± 0.03 % ID/g and the “accumulated radioactivity in Pancreas” value [1, 3] was 0.98 % ID/g and 0.98 ± 0.25 % ID/g. The “accumulated radioactivity in Right brain” value [1, 3] was 0.07 ± 0.02 % ID/g, the “accumulated radioactivity in Small intestine” value [1, 3] was 0.23 ± 0.11 % ID/g and the “accumulated radioactivity in Spleen” value [1, 3] was 0.31 ± 0.08 % ID/g. The “accumulated radioactivity in Stomach” value [1, 3] was 0.24 ± 0.05 % ID/g, the “accumulated radioactivity in Tumor” value [1, 3] was 0.12 ± 0.02 % ID/g and the Tumor-to-normal brain ratio ([1]; 15 minutes after injection) was 1.54. For the same molecule, the “accumulated radioactivity in Blood” value [1, 4] was 0.39 ± 0.03 % ID/g, the “accumulated radioactivity in Heart” value [1, 4] was 0.40 ± 0.07 % ID/g and the “accumulated radioactivity in Kidney” value [1, 4] was 0.34 ± 0.06 % ID/g. For the same molecule, the “accumulated radioactivity in Large intestine” value [1, 4] was 0.28 ± 0.05 % ID/g, the “accumulated radioactivity in Left brain” value [1, 4] was 0.25 ± 0.05 % ID/g and the “accumulated radioactivity in Liver” value [1, 4] was 0.37 ± 0.07 % ID/g. The “accumulated radioactivity in Lung” value [1, 4] was 0.43 ± 0.09 % ID/g, the “accumulated radioactivity in Muscle” value [1, 4] was 0.28 ± 0.01 % ID/g and the “accumulated radioactivity in Pancreas” value [1, 4] was 1.76 % ID/g and 1.76 ± 0.16 % ID/g. The “accumulated radioactivity in Right brain” value [1, 4] was 0.21 ± 0.03 % ID/g, the “accumulated radioactivity in Small intestine” value [1, 4] was 0.52 ± 0.26 % ID/g and the “accumulated radioactivity in Spleen” value [1, 4] was 0.50 ± 0.11 % ID/g. For the same molecule, the “accumulated radioactivity in Stomach” value [1, 4] was 0.36 ± 0.06 % ID/g, the “accumulated radioactivity in Tumor” value [1, 4] was 0.43 ± 0.10 % ID/g and the Tumor-to-normal brain ratio ([1]; 30 minutes after injection) was 1.74. For the same molecule, the “accumulated radioactivity in Blood” value [1, 5] was 0.38 ± 0.00 % ID/g, the “accumulated radioactivity in Heart” value [1, 5] was 0.43 ± 0.07 % ID/g and the “accumulated radioactivity in Kidney” value [1, 5] was 0.41 ± 0.08 % ID/g. For the same molecule, the “accumulated radioactivity in Large intestine” value [1, 5] was 0.42 ± 0.06 % ID/g, the “accumulated radioactivity in Left brain” value [1, 5] was 0.40 ± 0.06 % ID/g and the “accumulated radioactivity in Liver” value [1, 5] was 0.41 ± 0.06 % ID/g. For the same molecule, the “accumulated radioactivity in Lung” value [1, 5] was 0.43 ± 0.07 % ID/g, the “accumulated radioactivity in Muscle” value [1, 5] was 0.36 ± 0.04 % ID/g and the “accumulated radioactivity in Pancreas” value [1, 5] was 2.55 % ID/g and 2.55 ± 0.31 % ID/g. For the same molecule, the “accumulated radioactivity in Right brain” value [1, 5] was 0.34 ± 0.03 % ID/g, the “accumulated radioactivity in Small intestine” value [1, 5] was 0.65 ± 0.04 % ID/g and the “accumulated radioactivity in Spleen” value [1, 5] was 0.51 ± 0.09 % ID/g. The “accumulated radioactivity in Stomach” value [1, 5] was 0.40 ± 0.05 % ID/g, the “accumulated radioactivity in Tumor” value [1, 5] was 1.26 ± 0.22 % ID/g and the Tumor-to-normal brain ratio ([1]; 60 minutes after injection) was 3.16. The “accumulated radioactivity in Blood” value [1, 6] was 0.37 ± 0.03 % ID/g, the “accumulated radioactivity in Heart” value [1, 6] was 0.47 ± 0.02 % ID/g and the “accumulated radioactivity in Kidney” value [1, 6] was 0.42 ± 0.07 % ID/g. For the same molecule, the “accumulated radioactivity in Large intestine” value [1, 6] was 0.46 ± 0.04 % ID/g, the “accumulated radioactivity in Left brain” value [1, 6] was 0.48 ± 0.14 % ID/g and the “accumulated radioactivity in Liver” value [1, 6] was 0.49 ± 0.01 % ID/g. For the same molecule, the “accumulated radioactivity in Lung” value [1, 6] was 0.45 ± 0.02 % ID/g, the “accumulated radioactivity in Muscle” value [1, 6] was 0.44 ± 0.10 % ID/g and the “accumulated radioactivity in Pancreas” value [1, 6] was 2.28 % ID/g and 2.28 ± 0.76 % ID/g. The “accumulated radioactivity in Right brain” value [1, 6] was 0.48 ± 0.08 % ID/g, the “accumulated radioactivity in Small intestine” value [1, 6] was 0.43 ± 0.11 % ID/g and the “accumulated radioactivity in Spleen” value [1, 6] was 0.48 ± 0.11 % ID/g. The “accumulated radioactivity in Stomach” value [1, 6] was 0.43 ± 0.04 % ID/g, the “accumulated radioactivity in Tumor” value [1, 6] was 1.49 % ID/g and 1.49 ± 0.40 % ID/g and the Tumor-to-normal brain ratio ([1]; 90 minutes after injection) was 3.14. For the same molecule, the “maximum accumulation in normal brain tissue” value ([1]; 90 minutes after injection, tumor-bearing rat) was 0.48 % ID/g, the “accumulated radioactivity in Blood” value [1, 7] was 0.36 ± 0.03 % ID/g and the “accumulated radioactivity in Heart” value [1, 7] was 0.43 ± 0.07 % ID/g. The “accumulated radioactivity in Kidney” value [1, 7] was 0.41 ± 0.09 % ID/g, the “accumulated radioactivity in Large intestine” value [1, 7] was 0.38 ± 0.09 % ID/g and the “accumulated radioactivity in Left brain” value [1, 7] was 0.43 ± 0.09 % ID/g. For the same molecule, the “accumulated radioactivity in Liver” value [1, 7] was 0.41 ± 0.09 % ID/g, the “accumulated radioactivity in Lung” value [1, 7] was 0.40 ± 0.06 % ID/g and the “accumulated radioactivity in Muscle” value [1, 7] was 0.37 ± 0.10 % ID/g. The “accumulated radioactivity in Pancreas” value [1, 7] was 2.24 % ID/g and 2.24 ± 0.72 % ID/g, the “accumulated radioactivity in Right brain” value [1, 7] was 0.34 ± 0.04 % ID/g and the “accumulated radioactivity in Small intestine” value [1, 7] was 0.41 ± 0.09 % ID/g. For the same molecule, the “accumulated radioactivity in Spleen” value [1, 7] was 0.47 ± 0.04 % ID/g, the “accumulated radioactivity in Stomach” value [1, 7] was 0.41 ± 0.03 % ID/g and the “accumulated radioactivity in Tumor” value [1, 7] was 1.02 ± 0.16 % ID/g. For the same molecule, the Tumor-to-normal brain ratio ([1]; 120 minutes after injection) was 2.34, the “time of maximum accumulation in brain tumor and normal brain tissue” value ([1]; biological distribution, tumor-bearing rat) was 90 min and the “radioactivity in urine sample (excretion via urine)” value ([1]; tumor-bearing rat) was “high level of radioactivity”. For the same molecule, the “radioactivity accumulation in brain tumor on PET imaging” value ([2]; F98 glioma Fischer 344 rat) was “significant radioactivity accumulation in brain tumor” and the “time of maximum uptake in brain tumor on PET imaging” value ([2]; imaging at 0.5, 1, 1.5 and 2 hours) was 90 min.
